The test system of one data set is E. coli. The data set is described as follows: microbe, parasite or virus in culture. The format is cell-based, Escherichia coli. Particulars: for MIC: read-out: MIC against E. coli.
The test system of a further data set is Y. pestis CO92. The format is cell-based, Yersinia pestis.
Data set [1] deals with Y. pestis. Particulars: mouse, in vivo.
Data set [2] is described as follows: Microsomal stability analysis. Particulars: mouse, liver microsomes, pH 7.4.
The next data set deals with OF-1 female mice. The data set is described as follows: Tolerability study, 5-day intravenous regimen. The note with it: mouse.
The nature of data set [3]: In vivo pharmacokinetics, single intravenous dose. Particulars: for half-life: female, OF-1, mouse, plasma, iv.
A further data set concerns K. pneumoniae. The data set can be described thus: microbe, parasite or virus in culture. The format is cell-based, Klebsiella pneumoniae.
For another data set, the system named is Enterobacter spp. The data set can be described thus: microbe, parasite or virus in culture. The format is cell-based.
In a further data set the test system is P. mirabilis. The data set can be described thus: microbe, parasite or virus in culture. The format is cell-based, Proteus mirabilis.
The subject of another data set is C. koseri. The data set can be described thus: microbe, parasite or virus in culture. The format is cell-based, Citrobacter koseri.
Another data set has as its system C. freundii. The data set is described as follows: microbe, parasite or virus in culture. The format is cell-based, Citrobacter freundii.
The next data set concerns S. marcescens. The data set is described as follows: microbe, parasite or virus in culture. The format is cell-based, Serratia marcescens.
A further data set concerns M. morganii. The data set is described as follows: microbe, parasite or virus in culture. The format is cell-based, Morganella morganii.
A further data set deals with Yersinia spp. The data set is described as follows: microbe, parasite or virus in culture. The format is cell-based, Y. enterocolitica and Y. pseudotuberculosis.
The subject of another data set is Shigella spp. The data set can be described thus: microbe, parasite or virus in culture. The format is cell-based.
The subject of the next data set is Salmonella spp. The data set can be described thus: microbe, parasite or virus in culture. The format is cell-based, Salmonella enterica.
Another data set concerns P. aeruginosa. The data set can be described thus: microbe, parasite or virus in culture. The format is cell-based, Pseudomonas aeruginosa.
In a further data set the test system is A. baumannii. The data set is described as follows: microbe, parasite or virus in culture. The format is cell-based, Acinetobacter baumannii.
The subject of a further data set is Enterobacteriaceae. The data set can be described thus: organism not typed. The format is cell-based.
Data set [4] deals with Y. pestis. Particulars: cited from earlier work.

Values after ≈ are worked out from the molar mass of the structure shown. Like-named read-outs stand apart in the source and are kept apart here.

For the molecule `CC(O)(C(F)F)C(NC(=O)c1ccc(C#CC#Cc2ccc(N)cc2)cc1)C(=O)NO` (stereo not shown) [LPC-058], the MIC in the data set with E. coli (Escherichia coli) was 0.025 µg/mL (≈ 0.0585 µM). Besides, the “type of antibacterial effect (kill curve)” value with Y. pestis CO92 is “bacteriostatic effect”. In the data set on Y. pestis [1] (iv, 10 mg/kg), the “colonization of the lymph nodes, spleen, and blood relative to nontreated controls” value is “significantly (P < 0.02) lower colonization”; the survival rate was no less than 80%. In [2], this molecule had a half-life at 1 µM of 95 min and a microsomal CLint at 1 µM of 24 µL/min/mg. Besides, in the data set with OF-1 female mice (10 mg/kg q8h, 5 days), the “renal function (blood urea nitrogen) and hepatic function” value is on record as “normal”; the tissue damage result is reported as “no tissue damage was detected”. Moreover, in the data set with OF-1 female mice (40 mg/kg q12h, 5 days), the “histology (hematoxylin-eosin, 5-µm sections)” value is “accumulation of polymorphonuclear cells in the lung and large intestine”; the “liver toxicity (blood alanine aminotransferase level)” value is listed as “liver toxicity”. Moreover, the “plasma protein levels at the end of the 5-day regimen” value with OF-1 female mice (5-day regimen) is “Low plasma protein levels”. Besides, the “appearance of diarrhea after the first injection” value with OF-1 female mice (5-day regimen, regardless of regimen (10 mg/kg q8h, 20 mg/kg q12h, 40 mg/kg q12h)) was 3 days. For the same molecule, the “AUC greater than AUC of LPC-069” value in [3] (LPC-058 single dose 20 mg/kg versus LPC-069 single dose 40 mg/kg, mouse) is given as “approximately 10 fold”. This molecule also gave a half-life in data set [3] (20 mg/kg) of 53 min. For the same molecule, in data set [3] (mouse, single intravenous dose of 20 mg/kg), the tissue distribution volume came to 1.1 L/kg.

Turning to `CC(O)(C(F)F)C(NC(=O)c1ccc(C#Cc2ccc(CN3CCOCC3)cc2)cc1)C(=O)NO` (stereo not shown) [LPC-069], the “MIC Range” value fell in the range of 0.05 to 0.4 µg/mL with E. coli; 0.2 to 0.8 µg/mL in the data set on K. pneumoniae; 0.1 to 1.6 µg/mL in the data set on Enterobacter spp.; 0.2 to 0.8 µg/mL against P. mirabilis; 0.1 to 1.6 µg/mL in the data set with C. koseri; 0.2 to 0.4 µg/mL in the data set with C. freundii. Moreover, the “MIC Range” value fell in the range of 0.1 to 0.4 µg/mL against S. marcescens; 0.2 to 1.6 µg/mL against M. morganii; 0.2 to 0.8 µg/mL in the data set on Yersinia spp.; 0.025 to 0.2 µg/mL in the data set on Shigella spp.; 0.2 to 0.8 µg/mL with Salmonella spp; 0.2 to 3.2 µg/mL with P. aeruginosa. For the same molecule, the MIC50 stood at 0.1 µg/mL (≈ 0.205 µM) in the data set on E. coli (Escherichia coli); 0.4 µg/mL (≈ 0.821 µM) against K. pneumoniae (Klebsiella pneumoniae); 0.2 µg/mL (≈ 0.41 µM) against Enterobacter spp. (Enterobacter); 0.2 µg/mL (≈ 0.41 µM) with P. mirabilis (Proteus mirabilis); 0.4 µg/mL (≈ 0.821 µM) with C. koseri (Citrobacter koseri); 0.2 µg/mL (≈ 0.41 µM) with C. freundii (Citrobacter freundii). Also, the MIC50 against S. marcescens (Serratia marcescens) worked out at 0.2 µg/mL (≈ 0.41 µM); against M. morganii (Morganella morganii), 0.2 µg/mL (≈ 0.41 µM); in the data set on Yersinia spp. (Yersinia), 0.4 µg/mL (≈ 0.821 µM); in the data set with Shigella spp. (Shigella), 0.05 µg/mL (≈ 0.103 µM); against Salmonella spp (Salmonella), 0.4 µg/mL (≈ 0.821 µM); in the data set with P. aeruginosa (Pseudomonas aeruginosa), 1.6 µg/mL (≈ 3.28 µM). The same molecule came in with an MIC50 against A. baumannii (Acinetobacter baumannii) of 0.8 µg/mL (≈ 1.64 µM). The MIC90 in the data set with E. coli (Escherichia coli) was determined as 0.2 µg/mL (≈ 0.41 µM); against K. pneumoniae (Klebsiella pneumoniae), 0.8 µg/mL (≈ 1.64 µM); in the data set with Enterobacter spp. (Enterobacter), 0.4 µg/mL (≈ 0.821 µM); against P. mirabilis (Proteus mirabilis) it was 0.4 µg/mL (≈ 0.821 µM); against C. koseri (Citrobacter koseri) it was 0.4 µg/mL (≈ 0.821 µM); in the data set with C. freundii (Citrobacter freundii), 0.4 µg/mL (≈ 0.821 µM). The MIC90 in the data set on S. marcescens (Serratia marcescens) worked out at 0.2 µg/mL (≈ 0.41 µM); in the data set with M. morganii (Morganella morganii) it was 0.8 µg/mL (≈ 1.64 µM); with Yersinia spp. (Yersinia), 0.8 µg/mL (≈ 1.64 µM); with Shigella spp. (Shigella), 0.1 µg/mL (≈ 0.205 µM); against Salmonella spp (Salmonella), 0.4 µg/mL (≈ 0.821 µM); against P. aeruginosa, 3.2 µg/mL (≈ 6.56 µM). Moreover, the MIC90 with P. aeruginosa (Pseudomonas aeruginosa) was 3.2 µg/mL (≈ 6.56 µM); against A. baumannii, 3.2 µg/mL (≈ 6.56 µM); with A. baumannii (Acinetobacter baumannii) it was 3.2 µg/mL (≈ 6.56 µM); against Enterobacteriaceae it was 0.2 to 0.8 µg/mL (≈ 0.41 to 1.64 µM). Moreover, in the data set with E. coli (Escherichia coli), the MIC turned out to be 0.1 µg/mL (≈ 0.205 µM). Further, the “more active than ceftazidime-avibactam” value in the data set on P. aeruginosa is recorded as 4- to 8 fold. Also, the “type of antibacterial effect (kill curve)” value in the data set with Y. pestis CO92 is on record as “bacteriostatic effect”. In the data set with Y. pestis [1], the “survivors at day 21 postchallenge” value is 15 out of 15. The “colonization of the lymph nodes, spleen, and blood relative to nontreated controls” value in the data set with Y. pestis [1] (iv, 40 mg/kg) is given as “significantly (P < 0.02) lower colonization”. For the same molecule, the survival rate in the data set with Y. pestis [1] (iv, 40 mg/kg) was no less than 80%. Also, in the data set on Y. pestis [1] (iv, 200 mg/kg), the “bacterial load in skin, lymph nodes, spleen, and blood of survivors” value is reported as “sterile”. Also, in the data set with Y. pestis [1] (iv, 200 mg/kg), the posttreatment relapse result is reported as “only one of the 15 animals”. This molecule also came in with a half-life at 1 µM in data set [2] of 44 min. Moreover, the microsomal CLint at 1 µM in [2] is 52 µL/min/mg. For the same molecule, the “diarrhea and detectable toxicity” value with OF-1 female mice (5 days, any of the regimens tested (including 200 mg/kg q8h)) is “did not elicit any diarrhea or detectable toxicity”. Further, the half-life in [3] (40 mg/kg) was 10 min. Besides, the distribution volume in [3] (mouse, single intravenous 40-mg/kg dose) was 3.8 L/kg.

`O=C(O)c1cn(C2CC2)c2cc(N3CCNCC3)c(F)cc2c1=O` [ciprofloxacin]: the MIC in the data set with Y. pestis [4] was 0.03 µg/mL (≈ 0.0905 µM).

Take `C[C@H]1c2cccc(O)c2C(=O)C2=C(O)[C@]3(O)C(=O)C(C(N)=O)=C(O)[C@@H](N(C)C)[C@@H]3[C@@H](O)[C@@H]21` [doxycycline, reference compound]: in the data set with Y. pestis [1], the “survivors at day 21 postchallenge” value was 14 out of 15. In the data set on Y. pestis [1] (iv, 50 mg/kg), the “bacterial load in skin, lymph nodes, spleen, and blood of survivors” value is given as “sterile”. Moreover, the MIC in the data set with Y. pestis [4] is 0.5 µg/mL (≈ 1.13 µM).

The values above are taken from publication PMC5527309, “Curative Treatment of Severe Gram-Negative Bacterial Infections by a New Class of Antibiotics Targeting LpxC” (mBio, 2017).
